Test results published in patent US12578273B2, “Ph-reversible leuco-BODIPY probe for in situ visualization of extracellular vesicles and their secretion from living cells” (The Chinese University of Hong Kong, priority 2021, dated 2026).

Experiment: pH-dependent spectroscopic properties (pH titration, absorption and fluorescence)
Type: physicochemical
Description: In each step of pH titration, small volumes (2-10 μL) of HCl at appropriate concentrations (0.1, 10^−2, or 10^−3 M) were pipetted directly into the measurement cell, followed by filling up with 2 mL of 1 μM dye-containing solution [either in a mixture of PBS/ethanol 1:1 (v/v) or 0.5% (v/v) DMSO]. The pH was monitored at 298 K using a digital pH meter (827 pH lab) equipped with a Biotrode (Metrohm, Herisau, Switzerland). Calibration of the instrument was performed with standard aqueous solutions of pH 4, 7, and 9 from Metrohm. Absorption and fluorescence measurements were carried out on an Agilent Cary 5000 spectrophotometer and a Horiba Jobin Yvon spectrometer (Nanolog FL3-2iHR), respectively.
We investigated the spectroscopic properties of the fluorescent probe as a function of pH in phosphate-buffered saline (PBS) containing 50% ethanol by UV-vis spectrophotometry and fluorimetry (FIGS. 21A-21F, 22-23).

[1] = pH range of 3-11, C2H5OH/PBS (1:1, v/v)

Row | SMILES | onset of the fluorescence peak at 618 nm (pH) (PBS containing 50% ethanol) | red emission peak (PBS containing 50% ethanol) [nm] | longest wavelength absorption band (acidic conditions (pH of about 4), PBS containing 50% ethanol) [nm] | increase in emission at 618 nm (pH drops from 7.4 to 5.5) | increase in emission at 618 nm (pH drops from 7.4 to 6.5) [fold] | increase in emission at 618 nm (pH drops from 7.4 to 7.0) | pKa (corrected pKa) (reappearance of the absorption bands at 602 nm on reacidification with HCl, PBS containing 50% ethanol) | absorbance as a function of pH [1] | fluorescence as a function of pH [1]
1 | CCOC(=O)C(=CC1=[N+]2C(=C(c3ccncc3)c3ccc(C=C(C(=O)OCC)C(=O)OCC)n3[B-]2(F)F)C=C1)C(=O)OCC [BODIPY] | about 7.4 | 618 | 602 | about 15 fold | 8 | about 3 fold | 5.28±0.05 | – | –
2 | CN(C)CCNC(=O)CCc1ccc2n1[B-](F)(F)[N+]1=C(c3ccc[nH]3)C=CC1=C2 [LysoTracker™ Red, reference compound] | – | – | – | – | – | – | – | near-constant | always-on
